# Values quoted from earlier work, collected in patent US6051572A, “Azetidine, pyrrolidine and piperidine derivatives” (Merck Sharp & Dohme Ltd., priority 1995, dated 2000).
# Conditions: therapeutic doses
smiles,measurement,value
CNS(=O)(=O)Cc1ccc2[nH]cc(CCN(C)C)c2c1 [sumatriptan],adverse events in humans,certain adverse cardiovascular events
